Results: ChEMBL document CHEMBL1128378, “Use of medium-sized cycloalkyl rings to enhance secondary binding: discovery of a new class of human immunodeficiency virus (HIV) protease inhibitors” (J Med Chem, 1995)

Experiments:
[1] = tested on: HIV-1 protease (Human immunodeficiency virus 1); experiment: Binding affinity against HIV protease at 30 uM
[2] = tested on: HIV-1 protease (Human immunodeficiency virus 1); experiment: Inhibition against HIV protease at 1 uM
[3] = tested on: HIV-1 protease (Human immunodeficiency virus 1); experiment: Binding affinity against HIV protease at 1 uM
[4] = tested on: HIV-1 protease (Human immunodeficiency virus 1); experiment: Binding affinity against HIV protease at 30 uM concentration
[5] = Time taken for maximum plasma concentration for the compound in suspension form (formulation) was determined in rats at peroral dose of 5 mg/kg; format: ADME, organism-based; parameters: dose 5 mg/kg, route oral; conditions: rat, po
[6] = Maximum plasma concentration for the compound in solution form (formulation) was determined in rats at peroral dose of 5 mg/kg; format: ADME, organism-based; parameters: dose 5 mg/kg, route oral; conditions: rat, po
[7] = Maximum plasma concentration for the compound in suspension form (formulation) was determined in rats at peroral dose of 5 mg/kg; format: ADME, organism-based; parameters: dose 5 mg/kg, route oral; conditions: rat, po
[8] = Time taken for maximum plasma concentration for the compound in solution form (formulation) was determined in rats at peroral dose of 5 mg/kg; format: ADME, organism-based; parameters: dose 5 mg/kg, route oral; conditions: rat, po
[9] = tested on: HIV-1 protease (Human immunodeficiency virus 1); experiment: Binding affinity against HIV protease.; Not determined due to low enzyme inhibition

With O=c1c(Cc2ccccc2)c(O)oc2c1CCCCCC2 the inhibition [1] was less than 10%.

With O=c1c2c(oc(O)c1C(c1ccccc1)C1CC1)CCCCCCC2 (configuration not stated) the inhibition [2] was 94%.

CC(c1ccccc1)c1c(O)c2c(oc1=O)CCCCCC2 (configuration not stated) gave an inhibition [3] of 10%.

In the case of O=c1c2c(oc(O)c1C(c1ccccc1)C1CC1)CCCC2 (configuration not stated), the inhibition [2] is reported as 62%.

Compound O=c1c(CCCc2ccccc2)c(O)oc2c1CCCCCC2 has an inhibition [4] of 38%.

O=c1c(CCc2ccccc2)c(O)oc2c1CCCCCC2 gave an inhibition [1] of less than 10%.

Compound O=c1c2c(oc(O)c1C(c1ccccc1)C1CC1)CCCCCC2 (configuration not stated) has an inhibition [2] of 95%, a Tmax [5] of 6 h and a Cmax [6] of 40.8 µM. The Cmax [7] was 30.3 µM and the Tmax [8] was 3.7 h.

With O=c1c2c(oc(O)c1C(c1ccccc1)C1CC1)CCC2 (configuration not stated) the inhibition [2] was 40% and the Ki [9] was “Low inhibition”.

For O=c1c2c(oc(O)c1C(c1ccccc1)C1CC1)CCCCCCCCCC2 (configuration not stated), the inhibition [2] was less than 10% and the Ki [9] was “Low inhibition”.

O=c1c2c(oc(O)c1C(c1ccccc1)C1CC1)CCCCC2 (configuration not stated) gave an inhibition [2] of 70%.

Compound O=c1c2c(oc(O)c1C(c1ccccc1)C1CC1)CCCCCCCC2 (configuration not stated) has an inhibition [2] of 23%.
